Measured values: the Deep4Chem optical property database

Assay: solvent given as SMILES

SMILES: CCOC(=O)/N=c1/oc2c(OC)cccc2cc1C#N
- emission maximum (in ClCCl): 465 nm

SMILES: C(=C\c1cc2ccccc2c2ccccc12)/c1cc2ccccc2c2ccccc12
- emission maximum (in C1CCOC1): 416 nm

SMILES: CCCCCCCCN1C(=O)c2ccc3c4c(-c5ccc(-n6c7ccccc7c7ccccc76)cc5)cc5c6c(cc(-c7ccc(-n8c9ccccc9c9ccccc98)cc7)c(c7ccc(c2c37)C1=O)c64)C(=O)N(CCCCCCCC)C5=O
- emission maximum (in ClC(Cl)Cl): 651 nm

SMILES: CCCCCCN1C(=O)c2cccc3c(-c4ccc(-c5ccc(-c6ccc7c8c(cccc68)C(=O)N(CCCCCC)C7=O)s5)s4)ccc(c23)C1=O
- emission maximum (in ClC(Cl)Cl): 542 nm

SMILES: COc1ccc(C2=C3C=C(/C=C/C(=O)OC(C)(C)C)C=[N+]3[B-](F)(F)n3cccc32)cc1
- emission maximum (in ClCCl): 572 nm

SMILES: O=C(O)CCCCCn1c2ccc(Br)cc2c(=O)c2cc(Br)ccc21
- emission maximum (in O): 439 nm

SMILES: N#CSC1=CC2=C(c3ccccc3)c3ccc(N4CCOCC4)n3[B-](F)(F)[N+]2=C1N1CCOCC1
- emission maximum (in CC#N): 605 nm
- emission maximum (in CCCCCC): 599 nm
- emission maximum (in CCOC(C)=O): 604 nm
- emission maximum (in CO): 599 nm
- emission maximum (in ClCCl): 603 nm

SMILES: CCN(CC)c1ccc(/C=N/C(C#N)=C(C#N)/N=C/c2ccc(N(CC)CC)cc2O)c(O)c1
- emission maximum (in CC#N): 609 nm
- emission maximum (in CN(C)C=O): 618 nm
- emission maximum (in ClCCl): 612 nm

SMILES: Cc1ccc2c(c1)C(c1ccccc1)(c1ccccc1)c1cc(C)ccc1N2c1ccc2c(c1)Sc1ccccc1B2c1c(C(C)C)cc(C(C)C)cc1C(C)C
- emission maximum (in Cc1ccccc1): 493 nm
- emission maximum (in O=P(c1ccccc1)(c1ccccc1)c1ccc2oc3ccc(P(=O)(c4ccccc4)c4ccccc4)cc3c2c1): 497 nm

SMILES: CCCC(=O)c1c(OCOC)c(OCOC)c(C(=O)CCC)c2c1OCO2
- emission maximum (in CC#N): 503 nm

SMILES: N#Cc1nn(-c2cccc(C(F)(F)F)c2)nc1N1CCCC1
- emission maximum (in CC#N): 430 nm

SMILES: CCOC(=O)c1ccc(C2CC(c3cccc4ccccc34)=NN2c2ccc(C#N)cc2)cc1 (stereo unspecified)
- emission maximum (in ClCCl): 430 nm

SMILES: CCCCn1c2ccc(-c3ccc4ccccc4c3)cc2c2ccc3c4cc(-c5ccc6ccccc6c5)ccc4n(CCCC)c3c21
- emission maximum (in ClC(Cl)Cl): 418 nm

SMILES: CCCCCCCCCCCCOc1ccc(C#CC(C#Cc2ccc(OCCCCCCCCCCCC)cc2)=Cc2cc(C=C(C#Cc3ccc(OCCCCCCCCCCCC)cc3)C#Cc3ccc(OCCCCCCCCCCCC)cc3)cc(C=C(C#Cc3ccc(OCCCCCCCCCCCC)cc3)C#Cc3ccc(OCCCCCCCCCCCC)cc3)c2)cc1
- emission maximum (in CCOC(C)=O): 428 nm

SMILES: CNc1ccc2c(c1)C(=O)c1ccccc1-2
- emission maximum (in C1CCCCC1): 587 nm
- emission maximum (in c1ccccc1): 635 nm

SMILES: Cc1cc(C)c(B(c2ccc(-c3nc4c5ccccc5c5ccccc5c4[nH]3)cc2)c2c(C)cc(C)cc2C)c(C)c1
- emission maximum (in C1CCOC1): 456 nm
- emission maximum (in CC(C)=O): 469 nm
- emission maximum (in CS(C)=O): 484 nm
- emission maximum (in Cc1ccccc1): 435 nm
- emission maximum (in ClCCl): 454 nm

SMILES: CCCCC1(CCCC)c2cc(C#Cc3ccc4ccc5cccc6ccc3c4c56)ccc2-c2ccc(N(c3ccccc3)c3ccccc3)cc21
- emission maximum (in C1CCCCC1): 436 nm
- emission maximum (in C1CCOC1): 498 nm
- emission maximum (in CC#N): 557 nm
- emission maximum (in CCOC(C)=O): 490 nm
- emission maximum (in CN(C)C=O): 565 nm
- emission maximum (in Cc1ccccc1): 449 nm
- emission maximum (in ClC(Cl)Cl): 486 nm
- emission maximum (in ClCCl): 516 nm

SMILES: O=C(N/N=C/c1ccccc1O)c1cccc2ccccc12
- emission maximum (in C1CCOC1): 436 nm
- emission maximum (in CC#N): 376 nm
- emission maximum (in CC(C)=O): 428 nm
- emission maximum (in CCO): 429 nm
- emission maximum (in CN(C)C=O): 560 nm
- emission maximum (in CS(C)=O): 336 nm
- emission maximum (in ClCCl): 393 nm

SMILES: Cc1cc(C2(c3cc(C)c(O)c(Br)c3)OS(=O)(=O)c3ccccc32)cc(Br)c1O
- emission maximum (in C1CCOC1): 492 nm
- emission maximum (in C1COCCO1): 450 nm
- emission maximum (in CC#N): 497 nm
- emission maximum (in CC(C)(C)O): 473 nm
- emission maximum (in CC(C)=O): 490 nm
- emission maximum (in CC(C)O): 498 nm
- emission maximum (in CCCCCO): 485 nm
- emission maximum (in CCCO): 505 nm
- emission maximum (in CCO): 507 nm
- emission maximum (in CCOC(C)=O): 478 nm
- emission maximum (in CCOCC): 476 nm
- emission maximum (in CO): 502 nm

SMILES: COc1ccc(O)c(-c2[nH]c(=O)n3c2-c2ccccc2C3=O)c1
- emission maximum (in CC#N): 480 nm
- emission maximum (in CO): 500 nm
- emission maximum (in ClCCl): 481 nm

SMILES: CC1=C2C3=C(CCc4ccccc43)C(C)=[N+]2[B-](F)(F)n2c(C)c3c(c21)-c1ccccc1CC3
- emission maximum (in CC#N): 599 nm

SMILES: CCn1c2sccc2c2c3nsnc3c3c4ccsc4n(CC)c3c21
- emission maximum (in C1CCOC1): 521 nm
- emission maximum (in CCOC(C)=O): 521 nm
- emission maximum (in CN(C)C=O): 552 nm
- emission maximum (in Cc1ccccc1): 508 nm
- emission maximum (in ClCCl): 548 nm

SMILES: COC(=O)COc1ccc(/C=C/C2=[N+]3C(=C(c4ccc(N5CCCCC5)cc4)c4c(C)cc(C)n4[B-]3(F)F)C(C)=C2)cc1
- emission maximum (in CO): 581 nm

SMILES: CC[C@H](C)COc1ccc(C2=C3C(C)=CC(C)=[N+]3[B-](F)(F)n3c(C)cc(C)c32)cc1
- emission maximum (in ClCCl): 520 nm
